Reference: article PMC8522701 (Journal of nuclear medicine : official publication, Society …, 2012)

Columns and labels:
[1] = test system: Raji lymphoma mouse model; conditions: in vivo; cited from earlier work
[2] = test system: VLA-4–negative MDA-MB-231/fluc human breast cancer tumor cells; experiment: Cellular uptake assay, VLA-4-negative MDA-MB-231/fluc cells; format: cell-based; conditions: coincubation with 1 μM nonradioactive ligand, 60 min, 37°C; P = 0.3
[3] = test system: VLA-4–positive B16F10 mouse melanoma cells; experiment: Cellular uptake assay, VLA-4-positive B16F10 cells; format: cell-based; conditions: 60 min, 37°C, P < 0.05

What does the source list for “^64Cu-labeled 11-bis(carboxymethyl)-1,4,8,11-tetraazabicyclo[6.6.2] hexadecane (CB-TE2A)-LLP2A [^64Cu-CB-TE2A-LLP2A]”?
tracer uptake in tissues of Raji lymphoma mouse model [1]: uptake in the tumor, spleen, and bone marrow; blocking of cellular uptake with cold LLP2A in MDA-MB-231/fluc cells [2]: no significant blocking; cellular uptake (sum of internalized and cell surface-bound fractions) in B16F10 cells relative to MDA-MB-231 cells ([3]; 1 nM tracer, cpm/mg protein): higher; blocking of cellular uptake with cold LLP2A in B16F10 cells ([3]; coincubation with 1 μM nonradioactive ligand): blocking with cold LLP2A was observed
